Values joined by “and” are separate entries in the source; they are usually repeats but may differ in a detail not shown here. Equal values may be shown once. Toxic doses and inconclusive results are not listed.

Among the data in PubChem BioAssay AID330 (DTP/NCI, 2004) are T/C values, retold here.

The subject of this test is P388 leukemia ip, CD2F1 mice, survival T/C. Nature of the test: NCI In Vivo Anticancer Drug Screen. Data for tumor model P388 Leukemia (intraperitoneal) in CD2F1 (CDF1) mice. Particulars: endpoint: median survival time, higher = longer survival. Put shortly:
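Mice carrying the transplanted tumor received test compound or vehicle. Survival was recorded in each group, and the value is the treated-group measurement divided by that of the vehicle-treated control group.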

Setting [1] is: dose: 50.0 mg/kg/injection, schedule: Q01DX009 (ip), vehicle: Klucel (hydroxypropylcellulose) (HPC).
Where [2] appears, read: dose: 50.0 mg/kg/injection, schedule: Q01DX005 (ip), vehicle: saline with Tween-80.
[3] abbreviates: dose: 100.0 mg/kg/injection, schedule: Q01DX005 (ip), vehicle: saline with Tween-80.
Where [4] appears, read: dose: 200.0 mg/kg/injection, schedule: Q01DX005 (ip), vehicle: saline with Tween-80.
[5] abbreviates: dose: 60.0 mg/kg/injection, schedule: Q01DX005 (ip), vehicle: saline with Tween-80.
The mark [6] stands for this setting: dose: 120.0 mg/kg/injection, schedule: Q01DX005 (ip), vehicle: saline with Tween-80.
The mark [7] stands for this setting: dose: 240.0 mg/kg/injection, schedule: Q01DX005 (ip), vehicle: saline with Tween-80.
The mark [8] stands for this setting: dose: 100.0 mg/kg/injection, schedule: Q04DX002 (ip), vehicle: saline with Tween-80.
Where [9] appears, read: dose: 200.0 mg/kg/injection, schedule: Q04DX002 (ip), vehicle: saline with Tween-80.
[10] abbreviates: dose: 400.0 mg/kg/injection, schedule: Q04DX002 (ip), vehicle: saline with Tween-80.

Take `CC(=O)Nc1cc2cccnc2sc1=O`: the T/C reads like this: (dose: 25.0 mg/kg/injection, schedule: Q01DX005 (ip), vehicle: Klucel (hydroxypropylcellulose) (HPC)) 98 % of control; (dose: 50.0 mg/kg/injection, schedule: Q01DX005 (ip), vehicle: Klucel (hydroxypropylcellulose) (HPC)) 91 % of control; (dose: 100.0 mg/kg/injection, schedule: Q01DX005 (ip), vehicle: Klucel (hydroxypropylcellulose) (HPC)) 89 % of control and 94 % of control; (dose: 200.0 mg/kg/injection, schedule: Q01DX005 (ip), vehicle: Klucel (hydroxypropylcellulose) (HPC)) 96 % of control.

For `Cc1ccc(-c2cs/c(=N\N=C3/CSC(=O)N3Cc3ccccc3)n2-c2cccc(C)c2)cc1`, the T/C (dose: 100.0 mg/kg/injection, schedule: Q04DX002 (ip), vehicle: Klucel (hydroxypropylcellulose) (HPC)) was 89 % of control; the T/C (dose: 200.0 mg/kg/injection, schedule: Q04DX002 (ip), vehicle: Klucel (hydroxypropylcellulose) (HPC)) was 89 % of control; the T/C (dose: 400.0 mg/kg/injection, schedule: Q04DX002 (ip), vehicle: Klucel (hydroxypropylcellulose) (HPC)) was 91 % of control.

With `O=c1c(N=Nc2ccc(S(=O)(=O)Nc3nccs3)cc2)c(O)n(-c2ccccc2)n1-c1ccccc1`, the T/C was 88 % of control (dose: 12.5 mg/kg/injection, schedule: Q01DX009 (ip), vehicle: Klucel (hydroxypropylcellulose) (HPC)); 87 % of control and 93 % of control (dose: 25.0 mg/kg/injection, schedule: Q01DX009 (ip), vehicle: Klucel (hydroxypropylcellulose) (HPC)); 90 % of control and 91 % of control and 92 % of control under setting [1].

For `CCCCCCCCCCCCCCCC1=NCCN1`, the T/C under setting [2] is 105 % of control and the T/C under setting [3] is 107 % of control.

In the case of `COc1ccccc1C1c2cc3c(cc2OC(C)(O)C1C)OCO3` (centres undefined), the T/C was 100 % of control under setting [2], 97 % of control under setting [3] and 96 % of control under setting [4].

For `C[n+]1ccc(Nc2ccc(O)cc2)c2ccc(Cl)cc21`, the T/C by setting is: (dose: 12.5 mg/kg/injection, schedule: Q04DX003 (ip), vehicle: Klucel (hydroxypropylcellulose) (HPC)) 100 % of control; (dose: 25.0 mg/kg/injection, schedule: Q04DX003 (ip), vehicle: Klucel (hydroxypropylcellulose) (HPC)) 116 % of control and 92 % of control; (dose: 50.0 mg/kg/injection, schedule: Q01DX005 (ip), vehicle: saline + Tween-80 + alcohol) 112 % of control; (dose: 50.0 mg/kg/injection, schedule: Q04DX003 (ip), vehicle: Klucel (hydroxypropylcellulose) (HPC)) 101 % of control and 95 % of control; (dose: 100.0 mg/kg/injection, schedule: Q01DX005 (ip), vehicle: saline + Tween-80 + alcohol) 110 % of control; (dose: 100.0 mg/kg/injection, schedule: Q04DX003 (ip), vehicle: Klucel (hydroxypropylcellulose) (HPC)) 109 % of control and 112 % of control. The T/C (dose: 200.0 mg/kg/injection, schedule: Q01DX005 (ip), vehicle: saline + Tween-80 + alcohol) is 114 % of control; the T/C (dose: 200.0 mg/kg/injection, schedule: Q04DX003 (ip), vehicle: Klucel (hydroxypropylcellulose) (HPC)) was 120 % of control and 94 % of control.

As to `N#CC(Cc1ccccc1)(c1ccccc1)c1ccccc1`, the T/C under setting [1] was 101 % of control; the T/C (dose: 100.0 mg/kg/injection, schedule: Q01DX009 (ip), vehicle: Klucel (hydroxypropylcellulose) (HPC)) is 96 % of control; the T/C (dose: 200.0 mg/kg/injection, schedule: Q01DX009 (ip), vehicle: Klucel (hydroxypropylcellulose) (HPC)) was 93 % of control; the T/C (dose: 400.0 mg/kg/injection, schedule: Q01DX009 (ip), vehicle: Klucel (hydroxypropylcellulose) (HPC)) was 93 % of control.

With `C=C=C(C)C(C(C)C)N1CCCC1` (centres undefined), the T/C is, setting by setting: (dose: 50.0 mg/kg/injection, schedule: Q01DX005 (ip), vehicle: saline) 113 % of control; (dose: 100.0 mg/kg/injection, schedule: Q01DX005 (ip), vehicle: saline) 104 % of control.

With `CN(C)c1ccc(/C=C2/SC(=S)NC2=O)cc1`, the T/C runs as follows: (dose: 25.0 mg/kg/injection, schedule: Q01DX005 (ip), vehicle: saline with Tween-80) 93 % of control; under setting [2], 90 % of control; under setting [3], 87 % of control.

Take `CN(N=O)C(=O)NNC(=O)N(C)N=O`: the T/C is, setting by setting: (dose: 15.0 mg/kg/injection, schedule: Q04DX003 (ip), vehicle: saline with Tween-80) 105 % of control; (dose: 30.0 mg/kg/injection, schedule: Q01DX009 (ip), vehicle: saline with Tween-80) 100 % of control; (dose: 30.0 mg/kg/injection, schedule: Q04DX003 (ip), vehicle: saline with Tween-80) 110 % of control; (dose: 39.6 mg/kg/injection, schedule: Q04DX003 (ip), vehicle: saline with Tween-80) 109 % of control; (dose: 60.0 mg/kg/injection, schedule: Q04DX003 (ip), vehicle: saline with Tween-80) 113 % of control.

With `COC(=O)C1=C(C)NC(C)=C(C(=O)OC)C1c1ccc(NC(C)=O)cc1`, the T/C runs as follows: under setting [5], 113 % of control; under setting [6], 111 % of control; under setting [7], 113 % of control.

Consider `Cc1nc2ccc(NC(=O)NC(=O)c3c(F)cccc3F)cc2s1`, for which the T/C is 92 % of control (dose: 50.0 mg/kg/injection, schedule: Q04DX002 (ip), vehicle: saline with Tween-80); 92 % of control under setting [8]; 89 % of control under setting [9].

For `O=[N+]([O-])c1cc(C(F)(F)F)cc([N+](=O)[O-])c1Nc1ccccc1`, the T/C is, setting by setting: (dose: 30.0 mg/kg/injection, schedule: Q01DX005 (ip), vehicle: Klucel (hydroxypropylcellulose) (HPC)) 102 % of control; (dose: 60.0 mg/kg/injection, schedule: Q01DX005 (ip), vehicle: Klucel (hydroxypropylcellulose) (HPC)) 107 % of control; (dose: 120.0 mg/kg/injection, schedule: Q01DX005 (ip), vehicle: Klucel (hydroxypropylcellulose) (HPC)) 104 % of control; (dose: 240.0 mg/kg/injection, schedule: Q01DX005 (ip), vehicle: Klucel (hydroxypropylcellulose) (HPC)) 103 % of control.

Regarding `CCOC(=O)C(CC(C)C)NC(C)=O` (centres undefined), the T/C was 100 % of control under setting [8], 105 % of control under setting [9] and 114 % of control under setting [10].

With `Oc1ccc(N=Nc2c(-c3ccccc3)nn(C(=S)S)c2-c2ccccc2)cc1`, the T/C is 103 % of control under setting [2], 102 % of control under setting [3] and 101 % of control under setting [4].

As to `NC(=O)NNc1cccc(Cl)n1`, the T/C (dose: 100.0 mg/kg/injection, schedule: Q01DX001 (ip), vehicle: Klucel (hydroxypropylcellulose) (HPC)) is 96 % of control; the T/C (dose: 200.0 mg/kg/injection, schedule: Q01DX001 (ip), vehicle: Klucel (hydroxypropylcellulose) (HPC)) is 101 % of control; the T/C (dose: 400.0 mg/kg/injection, schedule: Q01DX001 (ip), vehicle: Klucel (hydroxypropylcellulose) (HPC)) was 97 % of control.

With `NC(=NC(=O)c1ccccc1)N(CCc1ccccc1)CCc1ccccc1`, the T/C runs as follows: under setting [5], 104 % of control; under setting [6], 100 % of control; under setting [7], 109 % of control.

As to `COC1CC(O)(CCNc2ccc([N+](=O)[O-])cc2[N+](=O)[O-])C(O)C(CO)O1` (centres undefined), the T/C runs as follows: (dose: 20.0 mg/kg/injection, schedule: Q01DX001 (ip), vehicle: Klucel (hydroxypropylcellulose) (HPC)) 100 % of control; (dose: 40.0 mg/kg/injection, schedule: Q01DX001 (ip), vehicle: Klucel (hydroxypropylcellulose) (HPC)) 93 % of control; (dose: 80.0 mg/kg/injection, schedule: Q01DX001 (ip), vehicle: Klucel (hydroxypropylcellulose) (HPC)) 94 % of control.

For the compound `O=S(=O)(c1cc(Cl)ccc1Cl)N(CCCCCN(S(=O)(=O)c1cc(Cl)ccc1Cl)S(=O)(=O)c1cc(Cl)ccc1Cl)S(=O)(=O)c1cc(Cl)ccc1Cl`, the T/C runs as follows: under setting [5], 99 % of control; under setting [6], 96 % of control; under setting [7], 95 % of control.

For `CCc1nc(N)nc(N)c1-c1ccc(N=[N+]=[N-])c(Cl)c1`, the T/C by setting is: under setting [8], 160 % of control; under setting [9], 116 % of control; under setting [10], 90 % of control.

With `O=C(O)C1=C/C(=C(/c2ccccc2)c2cc(C(=O)O)c(O)c3ccccc23)c2ccccc2C1=O`, the T/C reads like this: (dose: 50.0 mg/kg/injection, schedule: Q01DX009 (ip), vehicle: saline) 99 % of control; (dose: 60.0 mg/kg/injection, schedule: Q01DX005 (ip), vehicle: saline) 104 % of control; (dose: 100.0 mg/kg/injection, schedule: Q01DX009 (ip), vehicle: saline) 100 % of control; (dose: 120.0 mg/kg/injection, schedule: Q01DX005 (ip), vehicle: saline) 103 % of control; (dose: 200.0 mg/kg/injection, schedule: Q01DX009 (ip), vehicle: saline) 103 % of control; (dose: 240.0 mg/kg/injection, schedule: Q01DX005 (ip), vehicle: saline) 95 % of control.
